Tests used:
[1] = background statement; cited from earlier work
[2] = background statement; cited from earlier work; remark: listed apart in the source
[3] = equilibrium solubility and dissolution profile of oxypurinol in aqueous solution; assay type: physicochemical; details: for equilibrium solubility, dissolution and solubility: compared to oxypurinol free acid (FIG. 1)

| Structure (SMILES) | solubility [1] | bioavailability [2] | equilibrium solubility, dissolution and solubility ([3]; aqueous solution, in the presence of a 1 molar equivalent of lysine, FIG. 2) | equilibrium solubility, dissolution ([3]; in choline, FIG. 4) | equilibrium solubility, dissolution and solubility ([3]; in the presence of a 1 molar equivalent of L-arginine, FIG. 3) | equilibrium solubility, dissolution rate and solubility ([3]; using organic and or basic organic molecules, in aqueous solutions, compared to oxypurinol free acid) |
| --- | --- | --- | --- | --- | --- | --- |
| Oc1ncnc2[nH]ncc12 [Allopurinol, 4-hydroxy-pyrazolo[3,4-d]pyrimidine] | poorly soluble | poorly bioavailable | – | – | – | – |
| O=c1[nH]c(=O)c2c[nH]nc2[nH]1 [oxypurinol, 4,6-dihydroxypyrazolo[3,4-d]pyrimidine] | poorly soluble | poorly bioavailable | increased dissolution and solubility | increased dissolution | increased dissolution and solubility | increased equilibrium solubility, increased dissolution rate and solubility |

Reference: patent US11406713B2, “Xanthine oxidase inhibitor formulations” (XORTX THERAPEUTICS, INC., priority 2013, dated 2022)
